# Experimental data: publication PMC1764757 (BMC Cancer, 2006)
# Columns and labels:
# [1] = test system: patients with advanced unresectable pancreatic cancer; assay: randomized phase II trial: survival, PFS and tumor response; assay type: in vivo, human
# From the text: Patients with advanced unresectable pancreatic cancer were enrolled. Eligibility criteria included age ≥ 18 years, diagnosed (histologically or cytologically) with or without metastases, at least one bidimensionally measurable lesion, a Karnofsky performance score of ≥ 70%, a life expectancy of at least 12 weeks, and written informed consent. The main exclusion criteria were prior chemotherapy and/or major surgery related to pancreatic cancer before study entry with the exception of palliative surgery, brain metastases, a pancreatic tumor of neuroendocrine origin, second primary malignancies, inadequate liver and renal functions, inadequate bone marrow reserve, a history of cerebrovascular accident or repeated transient ischemic attacks and cardiac or cardiovascular abnormality.
# This was a multi-national, open-label, controlled, randomized, parallel-group, phase II pilot study, conducted in 20 centers in 7 countries (Austria, Belgium, France, Germany, Spain, Switzerland, and the United Kingdom). Eligible patients were randomized to receive either Cilengitide and gemcitabine or gemcitabine alone. The Pocock minimization method [23] was applied for randomization using factors for center and for locally advanced or metastatic disease following the definition according to the tumor-node-metastasis (TNM) classification and histopathological grading system of the International Union Against Cancer. Cilengitide (600 mg/m^2) was administered twice weekly as a 1 hour intravenous (IV) infusion for 4 consecutive weeks (1 cycle). Gemcitabine (1000 mg/m^2) was administered as a weekly 30-minute IV infusion once weekly for 3 weeks followed by 1 week of rest (1 cycle). In the drug combination group, on the days on which both drugs were given, Cilengitide was given immediately prior to gemcitabine. The planned treatment period was 24 weeks (6 cycles), but patients responding to either regimen could continue treatment up to a maximum of 48 weeks.
# Overall survival was defined as the time from the start of study drug administration to death. PFS was defined as the time interval between the date of randomization and the date of disease progression or death whichever came first. If neither was observed the patient was censored at the date of the last follow-up examination. A computed tomography or magnetic resonance imaging scan of target lesions was performed at baseline, weeks 9 and 17, and at the end of treatment to assess tumor size and treatment response. Unscheduled scans were conducted to confirm disease progression. Tumor response was assessed according to the amended World Health Organization (WHO) criteria for response based on the size of target lesions.
# The sample size of the trial was determined by clinical feasibility. No inferential statistical comparison of the two treatment arms was planned. The aim was to obtain information on safety and feasibility as well as trends in efficacy by determination of overall survival as primary and progression-free survival (PFS), response rate, quality of life (QoL), effects on biological markers of disease (CA 19.9) and angiogenesis (vascular endothelial growth factor and basic fibroblast growth factor) and safety as secondary endpoints. Confidence intervals were presented at the 95%-confidence level. The data of this phase II pilot- and feasibility study, are presented in a descriptive manner. The primary analysis of survival (time to death from any cause) was conducted using the intention-to-treat (ITT) population. An additional supportive analysis using the Per Protocol (PP) population was conducted. The secondary objectives were to determine PFS, response rates, safety and tolerability, QoL, biological response, and pharmacokinetics.
# [2] = ancillary pharmacokinetic study, plasma, HPLC-MS/MS; settings: for Tmax: human, iv
# Method: (§1) Blood samples were taken following drug administration and the plasma extracted immediately and stored. Blood samples for determination of Cilengitide were collected at the following time points: day 1 immediately before Cilengitide infusion and after 1 h (end of infusion); day 8 immediately before Cilengitide infusion and after 1 h (end of infusion) and 0.5 h, 1 h, 2 h, 3 h, 4 h, 7 h, and 11 h after end of Cilengitide infusion. Blood samples for gemcitabine analysis were collected in both treatment arms on day 1 and day 8 at the following time points: 0 h (immediately before start of infusion of gemcitabine), 0.5 h (at the end of infusion of gemcitabine) and 0.5 h, 1.5 h, 2.5 h, and 3.5 h after end of gemcitabine infusion.
# (§2) Analysis was carried out at a single laboratory using high-performance liquid chromatography-tandem mass spectrometry. Calculation of pharmacokinetic parameters was performed according to non-compartmental standard methods. Pharmacokinetic analyses included maximum plasma concentration (Cmax), time to maximum concentration (tmax), area under the curve from time zero to the last sampling time (AUC0-t), area under the curve from time zero to infinity (AUC0-∝), apparent elimination rate constant (λz), apparent terminal elimination half-life associated with the negative terminal slope (t1/2), total body clearance of drug from plasma (CL) and the volume of distribution at steady state (Vss). The lower limits of quantification for Cilengitide and gemcitabine in plasma were 1 ng/mL and 50 ng/mL, respectively. For the plasma quality control samples of Cilengitide the interbatch coefficient of variation (CV) was 3.4% to 9.2% and the interbatch accuracy was 97% to 104%. For the plasma quality control samples of gemcitabine, the interbatch CV was 5.6% to 9.4% and the interbatch accuracy was 93.5% to 104%.
# [3] = test system: patients with advanced pancreatic cancer; settings: cited from earlier work
# [4] = test system: patients with advanced unresectable pancreatic cancer; assay: randomized phase II trial: quality of life (EORTC QLQ-C30); assay type: in vivo, human; settings: QLQ-C30, change from baseline
# Method: Quality of life (QoL) was assessed using the European Organization for Research and Treatment of Cancer (EORTC) QoL core questionnaire (QLQ-C30, Version 3.0) in conjunction with the EORTC Pancreatic Module ([…] is a self-administered 30-item questionnaire and incorporates 5 functional scales, 3 symptom scales and a global health/QoL scale. EORTC-PAN26 is a 26-item questionnaire addressing pancreas cancer specific symptoms and the side effects from conventional therapy. Assessments were made at weeks 1, 9, 17, 25 and at the end of treatment. QoL data were analyzed descriptively due to the small number of patients enrolled in the study.
# [5] = test system: patients with advanced unresectable pancreatic cancer; assay: randomized phase II trial: safety, adverse events (NCI-CTC); assay type: in vivo, human
# From the text: This was a multi-national, open-label, controlled, randomized, parallel-group, phase II pilot study, conducted in 20 centers in 7 countries (Austria, Belgium, France, Germany, Spain, Switzerland, and the United Kingdom). Eligible patients were randomized to receive either Cilengitide and gemcitabine or gemcitabine alone. The Pocock minimization method was applied for randomization using factors for center and for locally advanced or metastatic disease following the definition according to the tumor-node-metastasis (TNM) classification and histopathological grading system of the International Union Against Cancer. Cilengitide (600 mg/m^2) was administered twice weekly as a 1 hour intravenous (IV) infusion for 4 consecutive weeks (1 cycle). Gemcitabine (1000 mg/m^2) was administered as a weekly 30-minute IV infusion once weekly for 3 weeks followed by 1 week of rest (1 cycle). In the drug combination group, on the days on which both drugs were given, Cilengitide was given immediately prior to gemcitabine. The planned treatment period was 24 weeks (6 cycles), but patients responding to either regimen could continue treatment up to a maximum of 48 weeks. […] Any change was based on patient hematological and/or non-hematological parameters on the intended day of treatment as well as the maximum drug-induced toxicity grade observed between dosing. The before treatment and 4-weekly evaluations included a physical examination and laboratory investigations (blood counts, biochemical profile, urinalysis). Assessments were also made of Karnofsky performance status and vital signs. Before the start of the study, at the end of the study and when clinically indicated during the study chest X-rays and 12-lead electrocardiograms were performed. Adverse events were monitored and evaluated for frequency, duration, severity (mild, moderate, severe, life-threatening) and possible relationship to study medication. Toxicity was assessed according to NCI-CTC Version 2. All adverse events whether reported by a patient or observed by an investigator or study nurse were documented, regardless of whether they were considered to be drug-related, together with any medical intervention.
# [6] = clinical; settings: human, in vivo, iv
# Method: as §1, §2
# [7] = human, in vivo, iv, 600 mg/m^2, 1 h
# Method: as §1, §2
# [8] = test system: patients with advanced solid tumors; settings: in vivo; cited from earlier work
# [9] = WHO criteria, ITT, listed as gemcitabine alone
# [10] = all adverse events during the treatment period
# [11] = onset during the treatment phase
# [12] = possibly related to treatment, listed as gemcitabine alone
# [13] = Cilengitide 600 mg/m^2 1 h IV infusion with gemcitabine, plasma, n 10
# [14] = in combination with gemcitabine
molecule,measurement,setting,value
"Nc1ccn([C@@H]2O[C@H](CO)[C@@H](O)C2(F)F)c(=O)n1 [Gemcitabine, gemcitabine]",1-year survival (95% CI),[1]; ITT population,0.24 (0.11–0.37)
same,Median PFS (95% CI),[1]; ITT population,115 (62–178) days
same,Median survival (95% CI),[1]; ITT population,234 (137–290) days
same,Number of deaths,[1]; ITT population,37
same,median PFS time,[1]; ITT population,3.8 months
same,median overall survival,[1]; ITT population,7.7 months
same,"Complete response, % of patients","[1]; WHO criteria, ITT",2%
same,"Complete response, No. patients","[1]; WHO criteria, ITT",1
same,"Partial response, % of patients","[1]; WHO criteria, ITT",12%
same,"Partial response, No. patients","[1]; WHO criteria, ITT",5
same,"Progressive disease, % of patients","[1]; WHO criteria, ITT",23%
same,"Progressive disease, No. patients","[1]; WHO criteria, ITT",10
same,"Response rate, % of patients","[1]; WHO criteria, ITT",14%
same,"Response rate, No. patients","[1]; WHO criteria, ITT",6
same,"Stable disease, % of patients","[1]; WHO criteria, ITT",42%
same,"Stable disease, No. patients","[1]; WHO criteria, ITT",18
same,"Tumor growth control rate, % of patients","[1]; WHO criteria, ITT",56%
same,"Tumor growth control, No. patients","[1]; WHO criteria, ITT",24
same,"Response rate, % of patients",[1]; [9],14%
same,"Tumor growth control rate, % of patients",[1]; [9],56%
same,median maximum plasma concentration,"[2]; gemcitabine alone group, Week 1, n = 5",10600 ng/mL
same,median maximum plasma concentration,"[2]; gemcitabine alone group, Week 2, n = 5",6060 ng/mL
same,median maximum plasma concentration,"[2]; gemcitabine in the Cilengitide and gemcitabine group, Week 1, n = 12",6960 ng/mL
same,median maximum plasma concentration,"[2]; gemcitabine in the Cilengitide and gemcitabine group, Week 2, n = 11",7490 ng/mL
same,Tmax,"[2]; plasma, 1000 mg/m^2",0.5 h
same,median survival time,[3]; gemcitabine alone,5.7 months
same,patients reporting an improved global health status,[4]; week 9,50%
same,patients reporting an improved global health status,[4]; week 17,47%
same,"Condition reduced, number of events","[5]; SAE, Grade 3, relationship not assessable, considered possibly related",1
same,Gamma-glutamyl transferase elevations (% of patients),[5]; [10],29%
same,Nausea (% of patients),[5]; [10],50%
same,Shivering (% of patients),[5]; [10],7%
same,ascites (% of patients),[5]; [10],26%
same,cholestasis (% of patients),[5]; [10],26%
same,dyspepsia (% of patients),[5]; [10],29%
same,dyspnea (% of patients),[5]; [10],14%
same,fever (% of patients),[5]; [10],24%
same,jaundice (% of patients),[5]; [10],19%
same,urinary tract infection (% of patients),[5]; [10],21%
same,number of possibly related serious adverse events,[5]; in vivo,8
same,"patients with possibly related adverse events, %",[5]; in vivo,76%
same,"patients with possibly related adverse events, number",[5]; in vivo,32
same,total number of possibly related adverse events,[5]; in vivo,278
same,"AE, Grade 1/2, No. of events",[5]; [11],617
same,"AE, Grade 1/2, Pts (%)",[5]; [11],17%
same,"AE, Grade 3/4, No. of events",[5]; [11],138
same,"AE, Grade 3/4, Pts (%)",[5]; [11],83%
same,"AE, all grades, No. of events",[5]; [11],755
same,"AE, all grades, Pts (%)",[5]; [11],100%
same,"SAE, all, No. of events",[5]; [11],64
same,"SAE, all, Pts (%)",[5]; [11],71%
same,"SAE, all, Pts (%)","[5]; onset during the treatment phase, listed as gemcitabine alone",71%
same,"Epistaxis, number of events","[5]; possibly related SAE, Grade 2",1
same,"Exanthema, number of events","[5]; possibly related SAE, Grade 2",1
same,"Pneumonia, number of events","[5]; possibly related SAE, Grade 2",1
same,"Anorexia, number of events","[5]; possibly related SAE, Grade 3",1
same,"Depression, number of events","[5]; possibly related SAE, Grade 3",1
same,"Dyspnea, number of events","[5]; possibly related SAE, Grade 3",2
same,Anemia (% of patients),[5]; possibly related to treatment,26%
same,Anorexia (% of patients),[5]; possibly related to treatment,14%
same,Asthenia (% of patients),[5]; possibly related to treatment,10%
same,Edema (% of patients),[5]; possibly related to treatment,5%
same,Fatigue (% of patients),[5]; possibly related to treatment,19%
same,Hair changes (% of patients),[5]; possibly related to treatment,12%
same,Headache (% of patients),[5]; possibly related to treatment,0%
same,Leukopenia (% of patients),[5]; possibly related to treatment,26%
same,Nausea (% of patients),[5]; possibly related to treatment,38%
same,Peripheral edema (% of patients),[5]; possibly related to treatment,5%
same,Shivering (% of patients),[5]; possibly related to treatment,2%
same,Sweating increased (% of patients),[5]; possibly related to treatment,2%
same,Thrombocytopenia (% of patients),[5]; possibly related to treatment,33%
same,Vomiting (% of patients),[5]; possibly related to treatment,26%
same,dyspepsia (% of patients),[5]; possibly related to treatment,7%
same,fever (% of patients),[5]; possibly related to treatment,10%
same,Leukopenia (% of patients),[5]; [12],26%
same,Shivering (% of patients),[5]; [12],2%
"CC(C)[C@H]1C(=O)N[C@@H](CCCN=C(N)N)C(=O)NCC(=O)N[C@@H](CC(=O)O)C(=O)N[C@H](Cc2ccccc2)C(=O)N1C [Cilengitide, Cyclo-l-Arg-l-Asp-d-Phe-N (Me) l-Val]","CL, Geomean",[2]; [13],54.2 mL/min/m^2
same,"Vss, Geomean",[2]; [13],12100 mL/m^2
same,Tmax,[2]; plasma,1 h
same,level at 1 h,"[6]; 600 mg/m^2, mean concentration at the end of infusion",75.4 ± 31.5 µg/mL
same,half-life,"[6]; t1/2, Geomean",~3 h
same,mean concentration at the end of infusion,[7],62.182 ± 12.345 µg/mL
same,dose limiting toxicity,[8],no dose limiting toxicity was recorded
"bevacizumab: anti-VEGF-agent, given in combination with gemcitabine",median overall survival time,[3]; [14],"8,8 months"
same,response rate,[3]; [14],21%
